What all share (format): cell-based
The test system of one experiment is HepG-2. Description: MTT cytotoxicity assay, HepG-2. Conditions: Homo sapiens, HepG2, hepatocellular carcinoma HepG-2, 48 h. As to the method: (§1) HepG2, MCF-7, WI 38, Caco-2 cancer cell lines were cultured in complete media of RPMI and DMEM, respectively, at 5% carbon dioxide and 37 °C following standard tissue culture work. The cells were grown in “10% fetal bovine serum (FBS) and 1% penicillin–streptomycin” in 96-multiwell plate. All the synthesized compounds were screened for their cytotoxicity using 20 μL of MTT solution (Promega, USA) for 48 h using untreated and treated cells with concentrations of (0.01, 0.1, 1, 10, and 100 μM) for 48 h.[41,42] The plate was cultured for 3 hours. The percentage of cell viability was calculated following this equation: […]. An ELISA microplate reader was used to measure the absorbance at 690 nm to calculate the viability versus concentration, and the IC50 value using GraphPad prism software.
Background: Formazan colour is commonly taken as a measure of viable cells.

A further experiment relates to Caco2. Description: MTT cytotoxicity assay, Caco2. Conditions: Homo sapiens, Caco-2, colon cancer Caco2, 48 h. As for the experimental part:
as §1

In a further experiment the test system is MCF-7. Briefly: MTT cytotoxicity assay, MCF-7. Conditions: Homo sapiens, MCF7, breast cancer MCF-7, 48 h. As to the method:
as §1

The test system of another experiment is WI 38. Briefly: MTT cytotoxicity assay, normal lung fibroblast WI 38. Conditions: Homo sapiens, 48 h. As for the experimental part: as §1

The term IC50 denotes the concentration that inhibits the measured activity by half. A high value points to weaker potency in that assay. As to `COc1ccc(C=NN=C(C)c2nn(-c3ccc(S(N)(=O)=O)cc3)c(=N)s2)cc1` [Compound 7a, 4-[2-Imino-5-(-1-((4-methoxybenzylidene)hydrazineylidene)ethyl)-1,3,4-thiadiazol-3(2H)-yl]benzenesulfonamide], the 50% inhibitory concentration (IC50) with HepG-2 stood at 4.17 ± 0.2 µM; in the experiment with Caco2, 3.16 ± 0.2 µM; in the experiment with MCF-7 it was 31.5 ± 1.4 µM; in the experiment with WI 38, 28.2 ± 1.5 µM.
For `CC(=NN=Cc1ccc(N(C)C)cc1)c1nn(-c2ccc(S(N)(=O)=O)cc2)c(=N)s1` [Compound 7b, 4-[5-(1-((4-(Dimethylamino)benzylidene)hydrazineylidene)ethyl)-2-imino-1,3,4-thiadiazol-3(2H)-yl]benzenesulfonamide], the half-maximal inhibitory concentration (IC50) in the experiment on HepG-2 turned out to be 26.8 ± 1.5 µM; in the experiment with Caco2, 33.6 ± 1.7 µM; in the experiment with MCF-7, 35.2 ± 1.6 µM; in the experiment with WI 38, 49.8 ± 2.6 µM.
For `CC(=NN=Cc1ccc([N+](=O)[O-])cc1)c1nn(-c2ccc(S(N)(=O)=O)cc2)c(=N)s1` [Compound 7c, 4-[2-Imino-5-(1-((4-nitrobenzylidene)hydrazineylidene)ethyl)-1,3,4-thiadiazol-3(2H)-yl]benzenesulfonamide], the IC50 with HepG-2 was 3.04 ± 0.2 µM; in the experiment on Caco2, 3.37 ± 0.2 µM; in the experiment with MCF-7, 9.59 ± 0.4 µM; in the experiment with WI 38 it was 25.4 ± 1.9 µM.
For the compound `COc1cc(OC)c(C=NN=C(C)c2nn(-c3ccc(S(N)(=O)=O)cc3)c(=N)s2)c(OC)c1` [Compound 9, 4-[2-Imino-5-(1-((2,4,6-trimethoxybenzylidene)hydrazineylidene)ethyl)-1,3,4-thiadiazol-3(2H)-yl]benzenesulfonamide], the IC50 in the experiment on HepG-2 worked out at 12.2 ± 0.7 µM; in the experiment on Caco2 it was 47.2 ± 2.3 µM; in the experiment with MCF-7 it was 7.21 ± 0.3 µM; in the experiment with WI 38 it was 25.4 ± 1.3 µM.
Turning to `CC(=NN=Cc1ccco1)c1nn(-c2ccc(S(N)(=O)=O)cc2)c(=O)s1` [Compound 11, 4-[5-(1-((Furan-2-ylmethylene)hydrazineylidene)ethyl)-2-oxo-1,3,4-thiadiazol-3(2H)-yl]benzene sulfonamide], the half-maximal inhibitory concentration (IC50) with HepG-2 is 15 ± 0.8 µM; in the experiment with Caco2 it was 8.55 ± 0.4 µM; in the experiment with MCF-7, 3.34 ± 0.2 µM; in the experiment on WI 38 it was 24.5 ± 1.8 µM.
The corresponding values for `CC(=NN=C1C(=O)Nc2ccccc21)c1nn(-c2ccc(S(N)(=O)=O)cc2)c(=N)s1` [Compound 13, 4-[2-Imino-5-(1-((2-oxoindolin-3-ylidene)hydrazineylidene)ethyl)-1,3,4-thiadiazol-3(2H)-yl]benzenesulfonamide] are 1.76 ± 0.1 µM, 8.99 ± 0.4 µM, 17.7 ± 0.8 µM and 11.4 ± 0.6 µM.
The corresponding values for `CC(=NN=C1C(=O)N(CN(C)C)c2ccccc21)c1nn(-c2ccc(S(N)(=O)=O)cc2)c(=N)s1` [Compound 15a, 4-[5-(1-((1-((Dimethylamino)methyl)-2-oxoindolin-3-ylidene)hydrazineylidene)ethyl)-2-imino-1,3,4-thiadiazol-3(2H)-yl]benzenesulfonamide] are 6.54 ± 0.4 µM, 2.33 ± 0.1 µM, 4.34 ± 0.2 µM and 13.4 ± 0.7 µM.
The corresponding values for `CCN(CC)CN1C(=O)C(=NN=C(C)c2nn(-c3ccc(S(N)(=O)=O)cc3)c(=N)s2)c2ccccc21` [Compound 15b, 4-[5-(1-((1-((Diethylamino)methyl)-2-oxoindolin-3-ylidene)hydrazineylidene)ethyl)-2-imino-1,3,4-thiadiazol-3(2H)-yl)benzenesulfonamide] are 1.62 ± 0.1 µM, 0.78 ± 0.04 µM, 4.43 ± 0.2 µM and 16.8 ± 0.9 µM.

For the origin of these results see publication PMC10068595, “Novel asymmetrical azines appending 1,3,4-thiadiazole sulfonamide: synthesis, molecular structure analyses, in silico ADME, and cytotoxic effect” (RSC Advances, 2023).
